The nature of the data set: Boiling temperature at pressure P. To be noted: Liquid, Ebulliometric method (Recirculating still).

Numbers after ± are expanded uncertainties.

For the compound `CCCCCC=O` [hexanal], the “Boiling temperature at pressure P” value (24.5 kPa) was 85.0 ± 0.3 °C; the “Boiling temperature at pressure P” value (34 kPa) was 94.2 ± 0.3 °C; the “Boiling temperature at pressure P” value (43.5 kPa) came to 101.1 ± 0.3 °C; the “Boiling temperature at pressure P” value (53 kPa) stood at 107 ± 0.3 °C; the “Boiling temperature at pressure P” value (62.5 kPa) came out at 112.2 ± 0.3 °C; the “Boiling temperature at pressure P” value (72 kPa) was 116.8 ± 0.3 °C. The “Boiling temperature at pressure P” value is 121 ± 0.3 °C (81.5 kPa); 124.7 ± 0.3 °C (91 kPa); 128.8 ± 0.3 °C (101.3 kPa); 131.8 ± 0.3 °C (110 kPa); 134.8 ± 0.3 °C (119.5 kPa); 137.5 ± 0.3 °C (129 kPa). The “Boiling temperature at pressure P” value (138.5 kPa) was 140.2 ± 0.3 °C; the “Boiling temperature at pressure P” value (148 kPa) was 143 ± 0.3 °C; the “Boiling temperature at pressure P” value (157.5 kPa) is 145.5 ± 0.3 °C; the “Boiling temperature at pressure P” value (167 kPa) turned out to be 147.7 ± 0.3 °C; the “Boiling temperature at pressure P” value (176.5 kPa) turned out to be 149.7 ± 0.3 °C; the “Boiling temperature at pressure P” value (186 kPa) came out at 151.8 ± 0.3 °C. Moreover, under “190 kPa”, the “Boiling temperature at pressure P” value is 152.7 ± 0.3 °C.

On to `CCOC(=O)C(C)CC` (configuration not stated) [ethyl 2-methylbutanoate], for which the “Boiling temperature at pressure P” value stood at 89.0 ± 0.2 °C (24.5 kPa); 98.1 ± 0.3 °C (34 kPa); 105.2 ± 0.3 °C (43.5 kPa); 111.1 ± 0.3 °C (53 kPa); 116.4 ± 0.3 °C (62.5 kPa); 121 ± 0.3 °C (72 kPa). For the same compound, the “Boiling temperature at pressure P” value is 124.8 ± 0.3 °C (81.5 kPa); 128.7 ± 0.3 °C (91 kPa); 132.5 ± 0.3 °C (101.3 kPa); 135.6 ± 0.3 °C (110 kPa); 138.6 ± 0.3 °C (119.5 kPa); 141.4 ± 0.3 °C (129 kPa). The “Boiling temperature at pressure P” value is, setting by setting: (138.5 kPa) 144.2 ± 0.3 °C; (148 kPa) 147.0 ± 0.3 °C; (157.5 kPa) 149.4 ± 0.3 °C; (167 kPa) 151.7 ± 0.3 °C; (176.5 kPa) 154 ± 0.3 °C; (186 kPa) 156.0 ± 0.3 °C. Also, under “190 kPa”, the “Boiling temperature at pressure P” value turned out to be 156.8 ± 0.3 °C.

Regarding `CCC/C=C/C=O` [(E)-2-hexenal], the “Boiling temperature at pressure P” value (24.5 kPa) turned out to be 100.4 ± 0.3 °C; the “Boiling temperature at pressure P” value (34 kPa) was 110 ± 0.3 °C; the “Boiling temperature at pressure P” value (43.5 kPa) was found to be 117.2 ± 0.3 °C; the “Boiling temperature at pressure P” value (53 kPa) was 123.8 ± 0.3 °C; the “Boiling temperature at pressure P” value (62.5 kPa) came to 129.5 ± 0.3 °C; the “Boiling temperature at pressure P” value (72 kPa) came out at 134.6 ± 0.3 °C. Also, the “Boiling temperature at pressure P” value (81.5 kPa) turned out to be 139 ± 0.3 °C; the “Boiling temperature at pressure P” value (91 kPa) was determined as 143.0 ± 0.4 °C; the “Boiling temperature at pressure P” value (101.3 kPa) is 147.6 ± 0.4 °C; the “Boiling temperature at pressure P” value (110 kPa) is 150.7 ± 0.4 °C; the “Boiling temperature at pressure P” value (119.5 kPa) came out at 154.0 ± 0.4 °C; the “Boiling temperature at pressure P” value (129 kPa) was 157.2 ± 0.4 °C. Also, the “Boiling temperature at pressure P” value came out at 160.0 ± 0.4 °C (138.5 kPa); 162.8 ± 0.4 °C (148 kPa); 165.2 ± 0.4 °C (157.5 kPa); 168 ± 0.4 °C (167 kPa); 170.2 ± 0.4 °C (176.5 kPa); 172.2 ± 0.4 °C (186 kPa). Further, for the setting “190 kPa”, the “Boiling temperature at pressure P” value is 173.1 ± 0.4 °C.
